Experimental data as given in patent US20250380697A1, “ISOXAZOLINE DERIVATIVE COMPOUND AND INSECTICIDAL COMPOSITION COMPRISING SAME” (KYUNG NONG CORPORATION, priority 2022, published 2025).

Key:
[1] = tested on: Phaedon brassicae; experiment: Pesticidal activity against Phaedon brassicae, leaf-dipping method; type: in vivo; conditions: counted 24, 48, 72 hours, time not given, read-out: mortality rate, Phaedon brassicae
Method: Cabbage (Daiya) leaves were cut into pieces with a diameter of 5.8 cm, dipped in the pesticide composition where the compound of Synthesis Example 2 was diluted (the solvent=distilled water+acetone 50,000 mg/L+Triton X-100 100 mg/L) for 30 seconds, and sufficiently shade-dried. Then, the shade-dried cabbage leaves were is placed in a petri dish (8.8 cm in diameter) covered with filter paper and repeatedly inoculated 3-5 times with the larvae of Phaedon brassicae, 10 larvae per inoculation. In particular, the Phaedon brassicae larvae used were those which were bred in the Andong National University (Korea) for multiple generations.
After the inoculation, the Phaedon brassicae larvae were stored under the conditions of 16 hours of light and 8 hours of dark, 25±1° C. and 50-60% relative humidity, and the number of live Phaedon brassicae larvae was counted 24, 48, and 72 hours after the inoculation. Thereafter, the larvae mortality rate was calculated in the same manner as in Test Example 1 above.

[2] = tested on: Thrips tabaci Lindeman; experiment: Pesticidal activity against Thrips tabaci Lindeman, spray method; type: in vivo; conditions: adults, counted 24 and 48 hours, time not given, read-out: mortality rate, Thrips tabaci Lindeman
Source text: A water-soaked filter paper (9.0 cm in diameter) was placed in an insect breeding dish (Lab Guide®) with a diameter of 9.0 cm and a height of 4.0 cm, and then parafilm (width 4.0 cm×height 4.0 cm) was placed thereon. Before being treated with a pesticide composition, 10 adult Thrips tabaci Lindeman were inoculated per petri dish using a No. 4 brush. In this case, Thrips tabaci Lindeman adults used were those collected in a place near the Andong National University (Korea) and bred for multiple generations. Then, the pesticide composition where the compound of Synthesis Example 2 was diluted (the solvent=distilled water+acetone 50,000 mg/L+Triton X-100 100 mg/L) was loaded into a 100 mL small sprayer, and sprayed 10-12 times at a distance of 30 cm and a height of 50 cm, and one cotyledons of soybean, which is a host plant, were added one at a time. Then, the Thrips tabaci Lindeman adults were stored under the conditions of 16 hours of light and 8 hours of darkness, 25±1° C., and relative humidity of 50-60%, and the number of live Thrips tabaci Lindeman adults was counted 24, and 48 hours after the inoculation. Thereafter, the larvae mortality rate was calculated in the same manner as in Test Example 1 above.

Cc1cc(C2=NOC(c3cc(Cl)cc(C(F)(F)F)c3)(C(F)(F)F)C2)ccc1C(=O)NC(=O)C1CC1 (racemic) [Synthesis Example 2]
mortality at 1 ppm [1]: 100% | mortality at 3 ppm [1]: 100% | mortality at 10 ppm [1]: 100% | mortality at 1 ppm [2]: 70% | mortality at 3 ppm [2]: 90% | mortality at 10 ppm [2]: 100%

CON=CNC(=O)c1ccc(C2=NOC(c3cc(Cl)cc(Cl)c3)(C(F)(F)F)C2)cc1C (stereo not drawn) [Comparative Example 1, fluxametamide]
mortality at 1 ppm [1]: 100% | mortality at 3 ppm [1]: 100% | mortality at 10 ppm [1]: 100% | mortality at 1 ppm [2]: 63% | mortality at 3 ppm [2]: 83% | mortality at 10 ppm [2]: 86%
